The values below come from patent US8802664B2 (Bioproject, priority 2010, dated 2014).

This assay has as its target T1, human H4 receptor (Homo sapiens, UniProt Q9H3N8).
T1 construct: expressed in transfected cells
Kind of assay: [3H]Histamine binding on membranes of CHO cells stably expressing human H4 receptor. The method in brief: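 Nonspecific binding defined with 10 μM JNJ 7777120. Bound radioactivity collected on polyethyleneimine-treated GF/B filters and counted by liquid scintillation.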

Read-outs that look alike come from different tables or passages of the source.

T1 sequence (Q9H3N8 whole entry): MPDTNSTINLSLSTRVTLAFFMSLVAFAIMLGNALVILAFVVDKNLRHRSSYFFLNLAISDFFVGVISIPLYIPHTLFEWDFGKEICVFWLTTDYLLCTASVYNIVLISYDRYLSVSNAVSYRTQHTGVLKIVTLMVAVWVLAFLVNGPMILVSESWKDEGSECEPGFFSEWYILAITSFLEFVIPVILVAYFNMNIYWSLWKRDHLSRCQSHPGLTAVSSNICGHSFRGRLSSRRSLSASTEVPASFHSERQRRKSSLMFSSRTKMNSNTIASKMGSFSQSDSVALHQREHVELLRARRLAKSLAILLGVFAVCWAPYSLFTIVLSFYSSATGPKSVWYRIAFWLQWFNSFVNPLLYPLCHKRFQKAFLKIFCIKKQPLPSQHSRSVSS

Consider `CN1CCC(OC(c2cccc(-c3cccc([N+](=O)[O-])c3)c2)c2nc3ccccc3s2)CC1` (centres unmarked) [Example 97, 2-[(1-methylpiperidin-4-yloxy)(3′-nitrobiphenyl-3-yl)methyl]benzothiazole], for which the Ki or IC50 activity class was less than 300 nM.
Still for that read-out and setting: the figure for `CN1CCC(OC(c2nc3cc(F)ccc3[nH]2)c2cc(OC(F)(F)F)ccc2F)CC1` (centres unmarked) [Example 509] is less than 30 nM.
The same measure, in the same setting: the value for `Cc1cccc(C(NC2CCN(C)CC2)c2nc3ccccc3s2)c1` (centres unmarked) [Example 21, [(benzothiazol-2-yl)(m-tolyl)methyl](1-methylpiperidin-4-yl)amine] was less than 300 nM.
The same measure, in the same setting: the value for `CN1CCC(OC(c2cccc(OCc3cccc(F)c3)c2)c2nc3ccccc3s2)CC1` (centres unmarked) [Example 171, 2-[[3-(3-fluorobenzyloxy)phenyl](1-methylpiperidin-4-yloxy)methyl]benzothiazole] was less than 30 nM.
In turn, `CN1CCC(OC(c2cccc(OC3CCNCC3)c2)c2nc3ccccc3s2)CC1` (centres unmarked) [Example 415, 2-{(1-methylpiperidin-4-yloxy)[3-(piperidin-4-yloxy)phenyl]methyl}benzothiazole] had a Ki or IC50 activity class of less than 300 nM.
On the same count and under the same terms, the value for `CN1CCC(OC(c2cccc(N3CCC(N)C3)c2)c2nc3ccccc3s2)CC1` (centres unmarked) [Example 423, 1-{3-[benzothiazol-2-yl(1-methylpiperidin-4-yloxy)methyl]phenyl}pyrrolidin-3-ylamine] was less than 300 nM; that for `CN1CCC(OC(c2cccc(C=CCCCO)c2)c2nc3ccccc3[nH]2)CC1` (centres unmarked) [Example 389, 5-{3-[(1H-benzimidazol-2-yl)(1-methylpiperidin-4-yloxy)methyl]phenyl}pent-4-en-1-ol] was less than 300 nM; that for `CN1CCC(NC(c2cccc(OCc3ccc(F)cc3)c2)c2nc3ccccc3[nH]2)CC1` (centres unmarked) [Example 103, {(1H-benzimidazol-2-yl)[3-(4-fluorobenzyloxy)phenyl]methyl}(1-methylpiperidin-4-yl)amine] was less than 300 nM.
The compound `CN1CCC(OC(c2cccc(-c3ccc(F)cc3)c2)c2nc3ccccc3[nH]2)CC1` (centres unmarked) [Example 115, 2-[(4′-fluorobiphenyl-3-yl)(1-methylpiperidin-4-yloxy)methyl]-1H-benzimidazole] returned a Ki or IC50 activity class of less than 300 nM.
Still for that read-out and setting: the value for `COc1ccc(F)c(C(OCC2CCN(C)C2)c2nc3ccccc3[nH]2)c1` (centres unmarked) [Example 504] was less than 30 nM.
The same measure, in the same setting: the value for `CN1CCC(OC(c2cccc(OCC=CCO)c2)c2nc3ccccc3s2)CC1` (centres unmarked) [Example 422, 4-{3-[benzothiazol-2-yl(1-methylpiperidin-4-yloxy)methyl]phenoxy}but-2-en-1-ol] was less than 30 nM.
Same read-out and setting: the figure for `Brc1cccc(C(OCC2CNC2)c2nc3ccccc3[nH]2)c1` (centres unmarked) [Example 502] is less than 1000 nM; for `CN1CCC(OC(c2cc(C(F)(F)F)cc(C(F)(F)F)c2)c2nc3ccccc3[nH]2)CC1` (centres unmarked) [Example 547] it is less than 1000 nM.
Consider `CN1CCC(OC(c2cccc(CCCCCNC(=N)N)c2)c2nc3ccccc3[nH]2)CC1` (centres unmarked) [Example 397, N-(5-{3-[(1H-benzimidazol-2-yl)(1-methylpiperidin-4-yloxy)methyl]phenyl}pentyl)guanidine], for which the Ki or IC50 activity class was less than 300 nM.
Still for that read-out and setting: the value for `CN1CCC(OC(c2cccc(SCCCCCCN)c2)c2nc3ccccc3[nH]2)CC1` (centres unmarked) [Example 451] was less than 300 nM; that for `CN1CCC(OC(c2cccc(C#CCCCCNC(=N)NC(=O)OC(C)(C)C)c2)c2nc3ccccc3[nH]2)CC1` (centres unmarked) [Example 345, N-tert-butoxycarbonyl-N′-(6-{3-[(1H-benzimidazol-2-yl)(1-methylpiperidin-4-yloxy)methyl]phenyl}hex-5-ynyl)guanidine] was less than 300 nM; that for `CN1CCC(OC(c2cccc(CCCCO)c2)c2nc3ccccc3s2)CC1` (centres unmarked) [Example 238, 4-{3-[benzothiazol-2-yl(1-methylpiperidin-4-yloxy)methyl]phenyl}butan-1-ol] was less than 1000 nM.
For `CN1CCC(OC(c2cccc(SC(F)(F)F)c2)c2nc3ccccc3[nH]2)CC1` (centres unmarked) [Example 517], the Ki or IC50 activity class is less than 30 nM.
Same read-out and setting: the figure for `CN1CCC(OC(c2nc3ccccc3[nH]2)c2ccc(F)cc2F)CC1` (centres unmarked) [Example 221, 2-[(2,4-difluorophenyl)(1-methylpiperidin-4-yloxy)methyl]-1H-benzimidazole] is less than 300 nM; for `CN1CCC(OC(c2cccc(OCCCCn3nccn3)c2)c2nc3ccccc3s2)CC1` (centres unmarked) [Example 315, 2-{(1-methylpiperidin-4-yloxy)[3-(4-[1,2,3]triazol-2-yl-butoxy)phenyl]methyl}benzothiazole] it is less than 1000 nM.
`CN1CCC(OC(c2cccc(OCC3CCCNC3)c2)c2nc3ccccc3s2)CC1` (centres unmarked) [Example 378, 2-{(1-methylpiperidin-4-yloxy)[3-(piperidin-3-ylmethoxy)phenyl]methyl}benzothiazole] came in with a Ki or IC50 activity class of less than 1000 nM.
Turning to `CN1CCC(OC(c2cccc(C#CCCCn3ccnn3)c2)c2nc3ccccc3[nH]2)CC1` (centres unmarked) [Example 417, 2-{(1-methylpiperidin-4-yloxy)[3-(5-[1,2,3]triazol-1-ylpent-1-ynyl)phenyl]methyl}-1H-benzimidazole], the Ki or IC50 activity class is less than 1000 nM.
Still for that read-out and setting: the value for `CN1CCC(OC(c2cccc(-c3ccc(Cl)c(Cl)c3)c2)c2nc3ccccc3s2)CC1` (centres unmarked) [Example 133, 2-[(3′,4′-dichlorobiphenyl-3-yl)(1-methylpiperidin-4-yloxy)methyl]benzothiazole] was less than 300 nM.
`CN1CCC(OC(c2cccc(Oc3cccnc3)c2)c2nc3ccccc3s2)CC1` (centres unmarked) [Example 448, 2-{(1-methylpiperidin-4-yloxy)[3-(pyridin-3-yloxy)phenyl]methyl}benzothiazole] gave a Ki or IC50 activity class of less than 300 nM.
For the compound `CN1CCC(OC(c2cccc(OC(F)(F)F)c2)c2nc3ccccc3[nH]2)CC1` (centres unmarked) [Example 280, 2-[(1-methylpiperidin-4-yloxy)(3-trifluoromethoxy-phenyl)methyl]-1H-benzimidazole], the Ki or IC50 activity class is less than 300 nM.
Still for that read-out and setting: the value for `CN1CCC(OC(c2cccc(C3CCN(C(=N)N)CC3)c2)c2nc3ccccc3[nH]2)CC1` (centres unmarked) [Example 394, 4-{3-[(1H-benzimidazol-2-yl)(1-methylpiperidin-4-yloxy)methyl]phenyl}piperidine-1-carboxamidine] was less than 1000 nM.
With `CC(C)C(=O)N(CCSc1cccc(C(OC2CCN(C)CC2)c2nc3ccccc3[nH]2)c1)C(=N)N` (centres unmarked) [Example 478], the Ki or IC50 activity class (human H4 receptor, evaluated in the GTPγ[35S] assay or in the [3H]histamine binding assay (not stated which per compound), Ki or IC50 class) was less than 300 nM.
Regarding `CN1CCC(OC(c2cccc(OCCCl)c2)c2nc3ccccc3s2)CC1` (centres unmarked) [Example 354, 2-[[3-(2-Chloroethoxy)phenyl](1-methylpiperidin-4-yloxy)methyl]benzothiazole], the Ki or IC50 activity class was less than 30 nM.
Regarding `CN1CCC(OC(c2cccc(C#CCCN)c2)c2nc3ccccc3s2)CC1` (centres unmarked) [Example 282, 4-{3-[benzothiazol-2-yl(1-methylpiperidin-4-yloxy)methyl]phenyl}but-3-ynylamine], the Ki or IC50 activity class is less than 1000 nM.
In turn, `CN1CCC(OC(c2cccc(CCCCCNC(=N)NC(=O)OC(C)(C)C)c2)c2nc3ccccc3[nH]2)CC1` (centres unmarked) [Example 335, N-tert-butoxycarbonyl-N′-(-{3-[(1H-benzimidazol-2-yl)(1-methylpiperidin-4-yloxy)methyl]phenyl}pentyl)guanidine] gave a Ki or IC50 activity class of less than 300 nM.
As for `CN1CCC(OC(c2cccc(CCCCCCNC(=N)N)c2)c2nc3ccccc3s2)CC1` (centres unmarked) [Example 363, N-(6-{3-[benzothiazol-2-yl(1-methylpiperidin-4-yloxy)methyl]phenyl}hexyl)guanidine], the Ki or IC50 activity class is less than 300 nM.
Compound `CN1CCC(COC(c2cccc(Br)c2)c2nc3ccccc3s2)C1` (centres unmarked) [Example 465] showed a Ki or IC50 activity class of less than 30 nM.
Regarding `CN1CCC(OC(c2cccc(C=CC#N)c2)c2nc3ccccc3s2)CC1` (centres unmarked) [Example 217, 3-{3-[benzothiazol-2-yl(1-methylpiperidin-4-yloxy)methyl]phenyl}acrylonitrile], the Ki or IC50 activity class was less than 300 nM.
On the same count and under the same terms, the value for `CN1CCC(OC(c2cccc(SCCCCCCO)c2)c2nc3ccccc3[nH]2)CC1` (centres unmarked) [Example 295, 6-{3-[(1H-benzimidazol-2-yl)(1-methylpiperidin-4-yloxy)methyl]phenylsulfanyl}hexan-1-ol] was less than 300 nM; that for `CN1CCC(OC(c2cccc(N3CCC(O)C3)c2)c2nc3ccccc3[nH]2)CC1` (centres unmarked) [Example 452] was less than 300 nM.
Compound `CN1CCC(OC(c2ccc(Cl)cc2)c2nc3ccccc3s2)CC1` (centres unmarked) [Example 4, 2-[(4-chlorophenyl)(1-methylpiperidin-4-yloxy)methyl]benzothiazole] showed a Ki or IC50 activity class of less than 1000 nM.
In the case of `CN1CCC(OC(c2cccc(N3CCC(O)(C(F)(F)F)C3)c2)c2nc3ccccc3s2)CC1` (centres unmarked) [Example 460, 1-{3-[benzothiazol-2-yl(1-methylpiperidin-4-yloxy)methyl]phenyl}-3-trifluoromethylpyrrolidin-3-ol], the Ki or IC50 activity class is less than 1000 nM.
For `CN1CCC(OC(c2nc3ccccc3[nH]2)c2ccccc2O)CC1` (single isomer, unassigned) [Example 627, 2-[(1H-benzimidazol-2-yl)(1-methylpiperidin-4-yloxy)methyl]phenol], the Ki or IC50 activity class is less than 30 nM.
Still for that read-out and setting: the figure for `CN1CCC(OC(c2cccc(C#CCCNC(=N)NC(=O)OC(C)(C)C)c2)c2nc3ccccc3[nH]2)CC1` (centres unmarked) [Example 307, N-tert-butoxycarbonyl-N′-(4-{3-[(1H-benzimidazol-2-yl)(1-methylpiperidin-4-yloxy)methyl]phenyl}but-3-ynyl)guanidine] is less than 1000 nM.
On the same count and under the same terms, the value for `Cc1ccc(C(OC2CCN(C)CC2)c2nc3ccccc3[nH]2)c(Cl)c1` (centres unmarked) [Example 213, 2-[(2-chloro-4-methylphenyl)(1-methylpiperidin-4-yloxy)methyl]-1H-benzimidazole] was less than 300 nM.
As for `CN1CCC(OC(c2cccc(N3CCC(=O)C3)c2)c2nc3ccccc3s2)CC1` (centres unmarked) [Example 443, 1-{3-[benzothiazol-2-yl(1-methylpiperidin-4-yloxy)methyl]phenyl}pyrrolidin-3-one], the Ki or IC50 activity class is less than 30 nM.
